# According to patent US20230227449A1, “AMIDOPYRIMIDONE DERIVATIVES” (Hoffmann-La Roche Inc., priority 2020, published 2023):
# pIC50: −log10 of the molar value.
# Target: Recombinant human Mat2a (Homo sapiens, UniProt P31153)
# Experiment: Determination of Mat2A activity (384 well absorbance-based assay, Biomol Green)
# Format: biochemical
# Conditions: 12.5 nM Mat2A, 100 μM ATP and Methionine, 2% DMSO, 120 minutes at RT, absorbance at 635 nm
# Method: Determination of Mat2A activity
# Measurement of Mat2A inhibition is performed in 384 well format absorbance-based assay. Recombinant human Mat2a (12.5 nM) and serial diluted compounds in DMSO (range of concentrations from […] to 508 pM) or controls (DMSO) are incubated for 15 minutes at room temperature (RT) in assay buffer containing 50 mM HEPES pH 7.5, 50 mM KCl, 50 mM MgCl2, 0.01% Tween 20 and 10 mM DTT. The reaction is initiated by the addition of the combined substrates ATP and Methionine, each at a final concentration of 100 μM. Final assay condition are 12.5 nM Mat2A, 100 μM ATP and Methionine Substrates and 2% DMSO. After 120 minutes of incubation at RT, the reaction is stopped by the addition of Biomol Green. The absorbance signal is measured at λ=635 nm with a multiplate reader (BMG Pherastar reader or equivalent) after 30 min of equilibration at RT.
# Recombinant human Mat2a, sequence (P31153 whole entry): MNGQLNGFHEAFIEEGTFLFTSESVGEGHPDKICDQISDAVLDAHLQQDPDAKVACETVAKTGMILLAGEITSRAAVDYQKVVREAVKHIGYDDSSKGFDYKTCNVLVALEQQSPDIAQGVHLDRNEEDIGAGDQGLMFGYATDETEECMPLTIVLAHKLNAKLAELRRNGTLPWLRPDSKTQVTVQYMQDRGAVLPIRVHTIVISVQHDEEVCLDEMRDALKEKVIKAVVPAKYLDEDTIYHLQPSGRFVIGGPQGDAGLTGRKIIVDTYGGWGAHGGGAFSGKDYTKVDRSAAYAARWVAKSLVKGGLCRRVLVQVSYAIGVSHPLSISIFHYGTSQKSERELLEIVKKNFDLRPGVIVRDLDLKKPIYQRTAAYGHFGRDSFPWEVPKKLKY
row,Compound,pIC50
1,"Cc1c(F)cccc1-n1c(=O)nc(N)c2ccc(C3CC3)nc21 (single isomer, unassigned) [Example 103, (+)-4-amino-7-cyclopropyl-1-(3-fluoro-2-methylphenyl)pyrido[2,3-d]pyrimidin-2 (1H)-one]",> 7.89
2,"Cc1c(F)cccc1-n1c(=O)nc(N)c2ccc(C3CC3)nc21 (single isomer, unassigned) [Example 104, (−)-4-amino-7-cyclopropyl-1-(3-fluoro-2-methylphenyl)pyrido[2,3-d]pyrimidin-2 (1H)-one]",6.96
3,"Nc1nc(=O)n(-c2ccccc2Cl)c2nc(C3CC3)ccc12 (single isomer, unassigned) [Example 114, (+)-4-amino-1-(2-chlorophenyl)-7-cyclopropylpyrido[2,3-d]pyrimidin-2 (1H)-one]",> 7.89
4,"Nc1nc(=O)n(-c2ccccc2Cl)c2nc(C3CC3)ccc12 (single isomer, unassigned) [Example 115, (−)-4-amino-1-(2-chlorophenyl)-7-cyclopropylpyrido[2,3-d]pyrimidin-2 (1H)-one]",7.14
5,"Nc1nc(=O)n(-c2cccc(F)c2Cl)c2nc(C3CC3)ccc12 (single isomer, unassigned) [Example 116, (+)-4-amino-1-(2-chloro-3-fluorophenyl)-7-cyclopropylpyrido[2,3-d]pyrimidin-2 (1H)-one]",> 7.89
6,"Nc1nc(=O)n(-c2cccc(F)c2Cl)c2nc(C3CC3)ccc12 (single isomer, unassigned) [Example 117, (−)-4-amino-1-(2-chloro-3-fluorophenyl)-7-cyclopropylpyrido[2,3-d]pyrimidin-2 (1H)-one]",7.11
7,"Cc1c(C#N)cccc1-n1c(=O)nc(N)c2ccc(C3CC3)nc21 (single isomer, unassigned) [Example 145, (+)-3-(4-amino-7-cyclopropyl-2-oxopyrido[2,3-d]pyrimidin-1 (2H)-yl)-2-methylbenzonitrile]",> 7.89
8,"Cc1c(C#N)cccc1-n1c(=O)nc(N)c2ccc(C3CC3)nc21 (single isomer, unassigned) [Example 146, (−)-3-(4-amino-7-cyclopropyl-2-oxopyrido[2,3-d]pyrimidin-1 (2H)-yl)-2-methylbenzonitrile]",7.24
9,"Cc1ccccc1-n1c(=O)nc(N)c2ccc(C3CC3)nc21 [Example 1, 4-amino-7-cyclopropyl-1-(o-tolyl)pyrido[2,3-d]pyrimidin-2(1H)-one]",> 7.89
10,"COc1ccccc1-n1c(=O)nc(N)c2ccc(C3CC3)nc21 [Example 2, 4-amino-7-cyclopropyl-1-(2-methoxyphenyl)pyrido[2,3-d]pyrimidin-2(1H)-one]",> 7.89
11,"Cc1ccccc1-n1c(=O)nc(N)c2ccc(C(C)(C)C)nc21 [Example 3, 4-amino-7-(tert-butyl)-1-(o-tolyl)pyrido[2,3-d]pyrimidin-2(1H)-one]",7.66
12,"COc1ccccc1-n1c(=O)nc(N)c2ccc(-c3ccccc3)nc21 [Example 4, 4-amino-1-(2-methoxyphenyl)-7-phenylpyrido[2,3-d]pyrimidin-2(1H)-one]",7.51
13,"Cc1ccccc1-n1c(=O)nc(N)c2ccc(N3CC(F)(F)C3)nc21 [Example 5, 4-amino-7-(3,3-difluoroazetidin-1-yl)-1-(o-tolyl)pyrido[2,3-d]pyrimidin-2(1H)-one]",7.66
14,"Cc1ncccc1-n1c(=O)nc(N)c2ccc(C3CC3)nc21 [Example 7, 4-amino-7-cyclopropyl-1-(2-methylpyridin-3-yl)pyrido[2,3-d]pyrimidin-2(1H)-one]",> 7.89
15,"Cc1ccccc1-n1c(=O)nc(N)c2ccc(C3CC3)cc21 [Example 8, 4-amino-7-cyclopropyl-1-(o-tolyl)quinazolin-2 (1H)-one]",> 7.89
16,"COc1ncccc1-n1c(=O)nc(N)c2ccc(C3CC3)nc21 [Example 9, 4-amino-7-cyclopropyl-1-(2-methoxypyridin-3-yl)pyrido[2,3-d]pyrimidin-2(1H)-one]",> 7.89
17,"Cc1ncccc1-n1c(=O)nc(N)c2cc(F)c(C3CC3)nc21 [Example 10, 4-amino-7-cyclopropyl-6-fluoro-1-(2-methylpyridin-3-yl)pyrido[2,3-d]pyrimidin-2(1H)-one]",> 7.89
18,"N#Cc1ncccc1-n1c(=O)nc(N)c2ccc(C3CC3)nc21 [Example 11, 3-(4-amino-7-cyclopropyl-2-oxopyrido[2,3-d]pyrimidin-1(2H)-yl)picolinonitrile]",> 7.89
19,"COc1c(F)cccc1-n1c(=O)nc(N)c2ccc(C3CC3)nc21 [Example 14, 4-amino-7-cyclopropyl-1-(3-fluoro-2-methoxyphenyl)pyrido[2,3-d]pyrimidin-2(1H)-one]",7.57
20,"Cc1c(C#N)cccc1-n1c(=O)nc(N)c2ccc(C3CC3)nc21 [Example 15, 3-(4-amino-7-cyclopropyl-2-oxopyrido[2,3-d]pyrimidin-1(2H)-yl)-2-methylbenzonitrile]",> 7.89
21,"Cc1ncccc1-n1c(=O)nc(N)c2ccc(C(C)C)nc21 [Example 16, 4-amino-1-(2-methylpyridin-3-yl)-7-propan-2-ylpyrido[2,3-d]pyrimidin-2-one]",> 7.89
22,"Cc1ncccc1-n1c(=O)nc(N)c2cc(Cl)c(C3CC3)nc21 [Example 18, 4-amino-6-chloro-7-cyclopropyl-1-(2-methylpyridin-3-yl)pyrido[2,3-d]pyrimidin-2(1H)-one]",> 7.89
23,"COc1c(C#N)cccc1-n1c(=O)nc(N)c2ccc(C3CC3)nc21 [Example 19, 3-(4-amino-7-cyclopropyl-2-oxopyrido[2,3-d]pyrimidin-1(2H)-yl)-2-methoxybenzonitrile]",> 7.89
24,"CCOc1c(C#N)cccc1-n1c(=O)nc(N)c2ccc(C3CC3)nc21 [Example 20, 3-(4-amino-7-cyclopropyl-2-oxopyrido[2,3-d]pyrimidin-1(2H)-yl)-2-ethoxybenzonitrile]",7.82

# Second part, the compound after the results:
row,pIC50,Compound
1,7.85,"Nc1nc(=O)n([C@@H]2CCCOC2)c2nc([C@@H]3C[C@H]3F)ccc12 (mixture of isomers) [Example 49, 4-amino-7-[(1SR,2RS)-2-fluorocyclopropyl]-1-[(3R)-tetrahydropyran-3-yl]pyrido[2,3-d]pyrimidin-2-one]"
2,7.74,"Cc1ncccc1-n1c(=O)nc(N)c2ccc([C@@H]3C[C@H]3C)nc21 (racemic) [Example 23, 4-amino-7-((1RS,2RS)-2-methylcyclopropyl)-1-(2-methylpyridin-3-yl)pyrido[2,3-d]pyrimidin-2(1H)-one]"
3,7.77,"Nc1nc(=O)n([C@H]2CCC[C@H]2O)c2nc(C3CC3)ccc12 (racemic) [Example 24, 4-amino-7-cyclopropyl-1-((1SR,2RS)-2-hydroxycyclopentyl)pyrido[2,3-d]pyrimidin-2(1H)-one]"
4,7.66,"C[C@@H]1OCC[C@H]1n1c(=O)nc(N)c2ccc(C3CC3)nc21 (racemic) [Example 30, 4-amino-7-cyclopropyl-1-[rac-(2RS,3SR)-2-methyloxolan-3-yl]pyrido[2,3-d]pyrimidin-2-one]"
5,> 7.89,"Cc1ncccc1-n1c(=O)nc(N)c2ccc([C@H]3C[C@@H]3F)nc21 (racemic) [Example 36, 4-amino-7-[(1RS,2SR)-2-fluorocyclopropyl]-1-(2-methyl-3-pyridyl)pyrido[2,3-d]pyrimidin-2-one]"
6,6.82,"Cn1nccc1-n1c(=O)nc(N)c2ccc(N3C[C@H]4CC[C@@H]3C4)nc21 (racemic) [Example 57, 4-amino-7-[(1SR,4RS)-3-azabicyclo[2.2.1]heptan-3-yl]-1-(2-methylpyrazol-3-yl)pyrido[2,3-d]pyrimidin-2-one]"
7,7.85,"C[C@@H]1OCCC[C@@H]1n1c(=O)nc(N)c2ccc(C3CC3)nc21 (racemic) [Example 121, 4-amino-7-cyclopropyl-1-[(2SR,3SR)-2-methyltetrahydropyran-3-yl]pyrido[2,3-d]pyrimidin-2-one]"
8,7.28,"C[C@@H]1OCC[C@@H]1n1c(=O)nc(N)c2ccc(C3CC3)nc21 (relative stereo) [Example 89, 4-amino-7-cyclopropyl-1-((cis)-2-methyltetrahydrofuran-3-yl)pyrido[2,3-d]pyrimidin-2(1H)-one]"
9,> 7.89,"Nc1nc(=O)n(-c2cccnc2Cl)c2nc(C3CC3)ccc12 (single isomer, unassigned) [Example 135, (+)-4-amino-1-(2-chloropyridin-3-yl)-7-cyclopropylpyrido[2,3-d]pyrimidin-2 (1H)-one]"
10,6.82,"Nc1nc(=O)n(-c2cccnc2Cl)c2nc(C3CC3)ccc12 (single isomer, unassigned) [Example 136, (−)-4-amino-1-(2-chloropyridin-3-yl)-7-cyclopropylpyrido[2,3-d]pyrimidin-2 (1H)-one]"
11,7.55,"Nc1nc(=O)n(C2CCOC2)c2nc(C3CC3)ccc12 (centres unmarked) [Example 6, 4-amino-7-cyclopropyl-1-(tetrahydrofuran-3-yl)pyrido[2,3-d]pyrimidin-2(1H)-one]"
12,> 7.89,"Nc1nc(=O)n(C2CCCOC2)c2nc(C3CC3)ccc12 (centres unmarked) [Example 12, 4-amino-7-cyclopropyl-1-(oxan-3-yl)pyrido[2,3-d]pyrimidin-2-one]"
13,7.64,"CC(C1CCOC1)n1c(=O)nc(N)c2ccc(C3CC3)nc21 (centres unmarked) [Example 13, 4-amino-7-cyclopropyl-1-[1-(oxolan-3-yl)ethyl]pyrido[2,3-d]pyrimidin-2-one]"
14,7.02,"Nc1nc(=O)n(-c2cccc3c2CCO3)c2nc(C3CC3)ccc12 [Example 17, 4-amino-7-cyclopropyl-1-(2,3-dihydrobenzofuran-4-yl)pyrido[2,3-d]pyrimidin-2(1H)-one]"
